Experimental data taken from patent US11434205B2, “Substituted imidazole carboxylate derivatives and the use thereof” (priority 2018, dated 2022).

Legend:
[1] = system: rats; experiment: Loss of righting reflexes (LORR) assay in rats, ED50 by up and down method; format: in vivo, rat; conditions: Rattus norvegicus, tail vein, class symbols
Description: The Anesthetic Activity of the Compounds was Assessed in Rats Using a Loss of Righting Reflexes (LORR) Assay
(§1) Adult male Sprague-Dawley rats (250-300 g) were selected for the experiment. […] The anesthesia effects of the compounds were assessed in rats using a LORR assay and a period >30 s was considered as an indicator of general anesthesia. Then the up and down method was used to determine 50% effective dose (ED50). The drugs were administered through the tail vein of rats in a volume of 0.6 mL and at a rate of 0.1 mL/s.

[2] = system: rats
Description: as §1

[3] = system: rats; experiment: Pharmacological characteristics at equivalent doses (2×ED50) in rats; conditions: 2×ED50, tail vein; for Adverse reactions: Red urine (incidence): DMSO solution (DMSO alone 10/10); for Onset time: time of LORR; for Adverse reactions: Tremor (incidence): animals affected/animals
Description: Comparison of Pharmacological Characteristics of the Compounds at Equivalent Doses (2×ED50) in Rats
Adult male Sprague-Dawley rats (250-300 g) were selected for the experiment (n=8). […] The drugs were administered at a dose twice their ED50 through the tail vein of rats in a volume of 0.6 mL and at a rate of 0.1 mL/s. In addition, the time of LORR was recorded as the onset time of anesthesia. […] Furthermore, the duration of the pharmacological effects is sufficient to meet the time requirements for rapid induction of general anesthesia and for diagnostic examinations, some short invasive clinical examinations, or operations.

C[C@H](c1ccccc1)n1cncc1C(=O)OCC1(C)CSC1 [Compound B8]
ED50 [1]: 0.5 to 1 mg/kg
Approximate therapeutic index [2]: >10
Minimal lethal dose [2]: >10 mg/kg
Righting reflex duration [3]: 5.00 ± 1.25 min
Adverse reactions: Red urine (incidence) [3]: Red urine (8/8)
Onset time [3]: 0.13 ± 0.05 min

CC#CC1(OC(=O)c2c(F)ncn2[C@H](C)c2ccccc2)CSC1 [Compound E91]
ED50 [1]: 0.5 to 1 mg/kg
Approximate therapeutic index [2]: >6
Minimal lethal dose [2]: >20 mg/kg
Righting reflex duration [3]: 1.24 ± 0.63 min
Adverse reactions: Red urine (incidence) [3]: (8/8)
Onset time [3]: 0.48 ± 0.21 min

C#CC1(OC(=O)c2cncn2[C@H](C)c2ccccc2)CSC1 [Compound D27]
ED50 [1]: 0.5 to 1 mg/kg
Approximate therapeutic index [2]: >10
Minimal lethal dose [2]: >10 mg/kg
Righting reflex duration [3]: 2.15 ± 1.03 min
Adverse reactions: Red urine (incidence) [3]: Red urine (8/8)
Onset time [3]: 0.32 ± 0.09 min

C=C=CC1(OC(=O)c2c(F)ncn2[C@H](C)c2ccccc2)CCCCC1 [Compound E36]
ED50 [1]: 0.5 to 1 mg/kg
Approximate therapeutic index [2]: >26
Minimal lethal dose [2]: >5 mg/kg
Righting reflex duration [3]: 2.21 ± 1.86 min
Adverse reactions: Red urine (incidence) [3]: (8/8)
Onset time [3]: 0.49 ± 0.17 min

C=CC(CC)(CC)OC(=O)c1cncn1[C@H](C)c1ccccc1 [Compound D24]
ED50 [1]: 0.5 to 1 mg/kg
Approximate therapeutic index [2]: >13
Minimal lethal dose [2]: >7 mg/kg
Righting reflex duration [3]: 0.80 ± 0.20 min
Adverse reactions: Red urine (incidence) [3]: Red urine (8/8)
Onset time [3]: 0.56 ± 0.31 min

CC#CC1(OC(=O)c2cncn2[C@H](C)c2ccccc2)CSC1 [Compound D29]
ED50 [1]: 0.5 to 1 mg/kg
Approximate therapeutic index [2]: >13
Minimal lethal dose [2]: >10 mg/kg
Righting reflex duration [3]: 1.19 ± 0.64 min
Adverse reactions: Red urine (incidence) [3]: (8/8)
Adverse reactions: Tremor (incidence) [3]: Tremor (3/8), Red urine
Onset time [3]: 0.73 ± 0.10 min

C=C=CC(CC)OC(=O)c1c(F)ncn1[C@H](C)c1ccccc1 (some centres unmarked) [Compound E77]
ED50 [1]: 0.5 to 1 mg/kg
Approximate therapeutic index [2]: >12
Minimal lethal dose [2]: >10 mg/kg
Righting reflex duration [3]: 1.90 ± 0.74 min
Adverse reactions: Red urine (incidence) [3]: urine (8/8)
Adverse reactions: Tremor (incidence) [3]: (2/8), Red
Onset time [3]: 0.11 ± 0.03 min

C[C@H](c1ccccc1)n1c(Cl)nc(Cl)c1C(=O)OC1COC1 [Compound E132]
ED50 [1]: 0.5 to 1 mg/kg
Approximate therapeutic index [2]: >14
Minimal lethal dose [2]: >10 mg/kg
Adverse reactions: Restlessness (incidence) [3]: (2/8), Red
Righting reflex duration [3]: 2.70 ± 1.15 min
Adverse reactions: Red urine (incidence) [3]: urine (8/8)
Onset time [3]: 0.18 ± 0.06 min

CC#CC1(OC(=O)c2cncn2[C@H](C)c2ccccc2)CCSC1 (some centres unmarked) [Compound D30]
ED50 [1]: 0.5 to 1 mg/kg
Approximate therapeutic index [2]: >11
Minimal lethal dose [2]: >5 mg/kg
Adverse reactions: Myoclonus (incidence) [3]: Myoclonus (2/8), Red
Righting reflex duration [3]: 1.32 ± 0.61 min
Adverse reactions: Red urine (incidence) [3]: urine (8/8)
Onset time [3]: 0.43 ± 0.22 min

C=CC#CC(C)OC(=O)c1cncn1[C@H](C)c1ccccc1 (some centres unmarked) [Compound D59]
ED50 [1]: 0.1 to 0.5 mg/kg
Approximate therapeutic index [2]: >11
Minimal lethal dose [2]: >13 mg/kg
Righting reflex duration [3]: 5.83 ± 1.06 min
Adverse reactions: Red urine (incidence) [3]: Red urine (8/8)
Onset time [3]: 0.15 ± 0.02 min

C[C@H](c1ccccc1)n1cncc1C(=O)OC1(C)COC1 [Compound B28]
ED50 [1]: 0.1 to 0.5 mg/kg
Approximate therapeutic index [2]: >13
Minimal lethal dose [2]: >10 mg/kg
Righting reflex duration [3]: 3.32 ± 0.72 min
Adverse reactions: Red urine (incidence) [3]: Red urine (8/8)
Onset time [3]: 0.29 ± 0.15 min

C=C(C)CC1(OC(=O)c2cncn2[C@H](C)c2ccccc2)CCC1 [Compound D26]
ED50 [1]: 0.1 to 0.5 mg/kg
Approximate therapeutic index [2]: >10
Minimal lethal dose [2]: >4 mg/kg
Adverse reactions: Myoclonus (incidence) [3]: Myoclonus (3/8), Red
Righting reflex duration [3]: 1.36 ± 0.52 min
Adverse reactions: Red urine (incidence) [3]: urine (8/8)
Onset time [3]: 0.56 ± 0.19 min
